Measured values: patent US8871722B2, “Perhydrolase epitopes” (Danisco US Inc., priority 2005, dated 2014)

Test system: human CD4+ T-cells

With “QLIFEGGEQKTTELA (listed as Mycobacterium smegmatis) [SEQ ID NO:53]” the “identification of peptide T-cell epitope (significant response in donor pool)” value (5 μM peptide, human donors) was “one peptide of interest was identified”.

tetanus toxoid [reference compound] was tested, and the “positive control proliferative response” value (tetanus toxoid at approximately 5 Lf/mL) was “robust positive control responses”.

B1: perhydrolase: wild-type M. smegmatis perhydrolase enzyme, amino acid sequence SEQ ID NO:2 (protein, listed as Mycobacterium smegmatis)
chain: MAKRILCFGDSLTWGWVPVEDGAPTERFAPDVRWTGVLAQQLGADFEVIEEGLSARTTNIDDPTDPRLNGASYLPSCLATHLPLDLVIIMLGTNDTKAYFRRTPLDIALGMSVLVTQVLTSAGGVGTTYPAPKVLVVSPPPLAPMPHPWFQLIFEGGEQKTTELARVYSALASFMKVPFFDAGSVISTDGVDGIHFTEANNRDLGVALAEQVRSLL
In the case of B1, the “structure index value (relative immunogenicity)” value (scale 0 to 2, the closer to 2.0 the more immunogenic) is reported as < 0.5.
